The values that follow come from ChEMBL document CHEMBL4402538, “Mycobacterial tryptophan biosynthesis: A promising target for tuberculosis drug development?” (Bioorg Med Chem Lett, 2019).

Assay [1] can be described thus: Inhibition of Mycobacterium tuberculosis Anthranilate phosphoribosyltransferase expressed in Escherichia coli BL21(DE3) pRIL cells harboring PRAI-InGPS preincubated for 10 mins followed by anthranilate addition in presence of PRPP.
The test system of assay [2] is Mycobacterium tuberculosis. Put plainly: Inhibition of Mycobacterium tuberculosis Anthranilate phosphoribosyltransferase expressed in Escherichia coli BL21(DE3) pRIL cells harboring PRAI-InGPS assessed as residual activity preincubated for 10 mins followed by anthranilate addition in presence of PRPP relative to control.
The test system of assay [3] is Mycobacterium tuberculosis. The assay can be described thus: Antimycobacterial activity against ofloxacin resistant Mycobacterium tuberculosis CI-10 incubated for 2 weeks. It is filed as functional. Particulars: CI-10, 336 h.
Assay [4] deals with Mycobacterium tuberculosis. The assay can be described thus: Antimycobacterial activity against isoniazid/streptomycin resistant Mycobacterium tuberculosis 01-R0348 incubated for 2 weeks. It is filed as functional. The following applies: 01-R0348, 336 h.
The test system of assay [5] is Mycobacterium tuberculosis. Put plainly: Antimycobacterial activity against streptomycin resistant Mycobacterium tuberculosis 98-01436 incubated for 2 weeks. It is filed as functional. The following applies: 98-01436, 336 h.
Assay [6] relates to Mycobacterium tuberculosis. Put plainly: Antimycobacterial activity against ofloxacin/isoniazid resistant Mycobacterium tuberculosis CI-14 incubated for 2 weeks. Particulars: CI-14, 336 h. It is filed as functional.
For assay [7], the system named is Mycobacterium tuberculosis. The assay can be described thus: Antimycobacterial activity against isoniazid resistant Mycobacterium tuberculosis BAA-812 incubated for 2 weeks. It is filed as functional. The following applies: BAA-812, 336 h.

Structures are written as SMILES. Converted amounts (≈) assume the structure as drawn.

As a reminder, the IC50 is the concentration that gives 50% inhibition. Take `Cc1ccc(C(=O)O)c(Nc2c(C)cccc2C(=O)O)c1`: in assay [1], the IC50 was 6.8 µM.
Regarding `Cc1cccc(C(=O)O)c1Nc1cc(Br)ccc1C(=O)O`, the 50% inhibitory concentration (IC50) in assay [1] stood at 3.3 µM.
On to `O=C(O)c1ccccc1Nc1cccc(Nc2ccccc2C(=O)O)c1C(=O)O`, for which the Activity in assay [2] worked out at 6%. In addition, the IC50 in assay [1] came out at 2.2 µM.
The MIC90 is an inhibitory concentration at the 90% level, which refers to growth in some studies and to a panel of isolates in others. For `N#C[C@@H]1N[C@@H](CO)[C@H]1c1ccc(-c2ccccc2F)cc1`, the MIC90 in assay [3] came out at 1.6 µM (≈ 0.452 µg/mL); in assay [4], 1.6 µM (≈ 0.452 µg/mL); in assay [5], 1.6 µM (≈ 0.452 µg/mL); in assay [6] it was 3 µM (≈ 0.847 µg/mL); in assay [7] it was 3 µM (≈ 0.847 µg/mL).
For the molecule `Cc1cccc(C(=O)O)c1Nc1cc(Cl)ccc1C(=O)O`, the IC50 in assay [1] amounted to 5.8 µM.
